Assay results as given in patent US20100048548A1, “IMINO-OXAZOLIDINES AND USE THEREOF” (Bayer HealthCare AG, priority 2005, published 2010).

How the values were obtained:
[1] = molecular target: T1, human factor Xa (FXa) (Homo sapiens, UniProt P00742); test: Determination of the factor Xa inhibition (chromogenic substrate); assay type: biochemical; conditions: human FXa 0.5 nmol/l, Pefachrome FXa 150 μmol/l, 25° C., pH 8.3
T1 construct: factor Xa, which is formed from the proenzyme factor X
Description: The enzymatic inhibition of human factor Xa (FXa) is measured using the conversion of a chromogenic substrate specific for FXa. Factor Xa cleaves p-nitroaniline from the chromogenic substrate. The determinations are carried out in microtitre plates as follows:
The test substances, in various concentrations, are dissolved in DMSO and incubated for 10 minutes at 25° C. with human FXa (0.5 nmol/l dissolved in 50 mmol/l of Tris buffer [C,C,C-tris(hydroxymethyl)aminomethane], 150 mmol/l of NaCl, 0.1% BSA [bovine serum albumin], pH=8.3). Pure DMSO is used as control. The chromogenic substrate (150 μmol/l Pefachrome® FXa from Pentapharm) is then added. After an incubation time of 20 minutes at 25° C., the extinction at 405 nm is determined.

[2] = test system: trypsin; test: Determination of the selectivity: trypsin inhibition (chromogenic substrate); assay type: biochemical, human; conditions: trypsin 500 mU/ml, Chromozym Trypsin, 37° C., pH 8.0
Description: (§1) To assess selective FXa inhibition, the test substances are examined for their inhibition of other human serine proteases such as trypsin and plasmin. To determine the enzymatic activity of trypsin (500 mU/ml) and plasmin (3.2 nmol/l), these enzymes are dissolved in Tris buffer (100 mmol/l, 20 mmol/l CaCl2, pH=8.0) and incubated with test substance or solvent for 10 minutes. The enzymatic reaction is then started by adding the corresponding specific chromogenic substrates (Chromozym Trypsin® and Chromozym Plasmin®; from Roche Diagnostics) and the extinction at 405 nm is determined after 20 minutes. All determinations are carried out at 37° C.

[3] = molecular target: T2, plasmin (Homo sapiens, UniProt P00747); test: Determination of the selectivity: plasmin inhibition (chromogenic substrate); assay type: biochemical; conditions: plasmin 3.2 nmol/l, Chromozym Plasmin, 37° C., pH 8.0
T2 construct: To determine the enzymatic activity of trypsin (500 mU/ml) and plasmin (3.2 nmol/l)
Description: as §1

T1 sequence (P00742 235-488 limits assumed): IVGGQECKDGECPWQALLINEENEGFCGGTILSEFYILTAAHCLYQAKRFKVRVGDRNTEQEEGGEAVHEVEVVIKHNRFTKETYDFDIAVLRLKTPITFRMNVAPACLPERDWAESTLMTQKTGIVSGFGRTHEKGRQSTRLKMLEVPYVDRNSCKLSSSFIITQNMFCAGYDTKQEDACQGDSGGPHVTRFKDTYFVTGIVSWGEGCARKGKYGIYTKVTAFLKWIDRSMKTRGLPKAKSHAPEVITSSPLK
T1 sequence (P00742 41-179 partner limits assumed): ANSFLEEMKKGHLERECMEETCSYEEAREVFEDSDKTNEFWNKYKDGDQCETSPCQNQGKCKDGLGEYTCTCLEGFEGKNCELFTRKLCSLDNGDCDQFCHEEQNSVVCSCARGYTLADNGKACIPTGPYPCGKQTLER
T2 sequence (P00747 581-810 limits assumed): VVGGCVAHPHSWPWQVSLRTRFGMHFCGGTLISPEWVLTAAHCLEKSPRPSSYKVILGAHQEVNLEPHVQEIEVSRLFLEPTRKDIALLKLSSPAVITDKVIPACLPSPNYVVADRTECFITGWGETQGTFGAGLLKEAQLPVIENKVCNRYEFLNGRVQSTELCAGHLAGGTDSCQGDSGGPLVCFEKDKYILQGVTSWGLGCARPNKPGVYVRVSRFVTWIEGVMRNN
T2 sequence (P00747 97-580 partner limits assumed): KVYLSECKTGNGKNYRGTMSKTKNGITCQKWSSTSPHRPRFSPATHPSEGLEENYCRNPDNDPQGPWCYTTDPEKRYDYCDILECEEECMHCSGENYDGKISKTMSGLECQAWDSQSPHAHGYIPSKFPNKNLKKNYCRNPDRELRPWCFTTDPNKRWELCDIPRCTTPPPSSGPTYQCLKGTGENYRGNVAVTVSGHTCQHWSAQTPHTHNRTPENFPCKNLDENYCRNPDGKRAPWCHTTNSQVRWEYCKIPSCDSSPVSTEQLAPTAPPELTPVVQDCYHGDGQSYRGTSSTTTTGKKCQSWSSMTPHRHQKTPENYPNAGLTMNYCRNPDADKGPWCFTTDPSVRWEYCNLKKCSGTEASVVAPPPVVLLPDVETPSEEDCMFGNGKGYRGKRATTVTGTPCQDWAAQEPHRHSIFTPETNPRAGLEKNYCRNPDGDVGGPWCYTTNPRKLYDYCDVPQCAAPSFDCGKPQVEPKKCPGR

N=C1O[C@@H](CNC(=O)c2ccc(Cl)s2)CN1c1ccc(N2CCOCC2=O)cc1 [Example 1, 5-Chloro-N-({(5S)-2-imino-3-[4-(3-oxomorpholin-4-yl)phenyl]-1,3-oxazolidin-5-yl}methyl)-thiophene-2-carboxamide]
IC50 [1]: 0.0054 µM | IC50 [2]: > 10 µM | IC50 [3]: > 10 µM
